Laboratory results reported in article PMC12475274, “Harnessing indole scaffolds to identify small-molecule IRE1α inhibitors modulating XBP1 mRNA splicing” (Nature Communications, 2025).
Where “and” joins values, the source holds several entries; their conditions need not be identical. Identical values can stand only once. Like-named read-outs stand apart in the source and are kept apart here.

Tests used:
dephosphorylated IRE1α = molecular target: T1, dephosphorylated IRE1α (Homo sapiens, UniProt O75460); test: Isothermal titration calorimetry (ITC), incl. competitive ITC; type: binding; settings: titrating 200 μM compound into 10 μM IRE1α; no competitor (DMSO); read-out: KD (ITC)
T1 construct: Human IRE1α kinase and RNase domain (residues 547–977) was subcloned into pLIB plasmid; His tag (with TEV cleavage site) (N, cleaved yes); made in house; host or cells: Sf9 insect cells, baculovirus (Bac-to-Bac)
Experimental: The dephosphorylated IRE1α protein was used directly after purification, ITC experiments were carried out at 25 °C using MicroCal PEAQ-ITC system (Malvern) in buffer 25 mM HEPES pH 7.5, 250 mM NaCl, 1 mM TCEP, 5% glycerol, 1% DMSO. The solution was diluted to a final 1% DMSO in the same buffer as for the protein. Protein and compound solution were degassed before loading to the cell and syringe respectively. Unless otherwise noted, 200 μM of compound was loaded into the syringe and 10 μM of IRE1α protein was loaded into the sample cell. For competitive ITC, the protein was incubated with the indicated compound at 25 °C (final 1% DMSO) before loading to the cell. Instrument settings were: reference power 10 μcal/s, feedback high, stir speed 750 rpm, initial delays 60 s, injection spacing 150 s, injection duration 4 s. All experiments were performed with a single 0.4 μL injection followed by 18 (or 15), 2 μL injections. Data were analyzed using MicroCal PEAQ-ITC analysis software. The one set of sites fitting model is used for the calorimetry data analysis, with cell concentration and syringe concentration as the input parameters. For compound IA01, the N was set to 1 to improve the fit.

p-IRE1α = molecular target: T2, p-IRE1α (Homo sapiens, UniProt O75460); test: Differential scanning fluorimetry (DSF), p-IRE1α; type: binding; settings: individual replicate values
T2 construct: Human IRE1α kinase and RNase domain (residues 547–977) was subcloned into pLIB plasmid; His tag (with TEV cleavage site) (N, cleaved yes); made in house; host or cells: Sf9 insect cells, baculovirus (Bac-to-Bac)
Experimental: (§1) The DSF assay was performed in PBS buffer containing 2 mM DTT, in a total reaction volume of 20 µl with indicated compounds (final 1% DMSO) and the final concentration of 1 µM IRE1α protein and 5× SYPRO Orange fluorescent dye (5000× in DMSO, Sigma S5692). The melting curve was measured at a temperature range from 25 °C to 95 °C and in increments of 1 °C for 30 s using a Bio-Rad CFX96 Real-Time PCR detection system with the FRET scan mode. The melting temperature (Tm) was obtained by fitting the melting curve to Boltzmann sigmoidal in GraphPad Prism and the thermal shift (∆Tm) was calculated by using the equation: ∆Tm = Tm(compound) -Tm(DMSO).

[1] = molecular target: T3, phosphorylated IRE1α (p-IRE1α) (Homo sapiens, UniProt O75460); test: FRET-based IRE1α RNase activity assay, phosphorylated IRE1α; type: biochemical; settings: FRET assay
T3 construct: Human IRE1α kinase and RNase domain (residues 547–977) was subcloned into pLIB plasmid; His tag (with TEV cleavage site) (N, cleaved yes); made in house; host or cells: Sf9 insect cells, baculovirus (Bac-to-Bac)
In short: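 Sf9-expressed IRE1α kinase-RNase domain (residues 547–977), fully phosphorylated fraction, 4 nM, preincubated with compound 30 min at RT, then 200 nM FAM/BHQ1 XBP1 RNA added in HEPES pH 7.5 buffer. Fluorescence (ex 485/em 535 nm) read kinetically for 1 h at RT; inhibition from linear slopes, IC50 by concentration-response fit.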

IRE1α = molecular target: T4, IRE1α (Homo sapiens, UniProt O75460); test: Differential scanning fluorimetry (DSF), IRE1α; type: binding; settings: for IRE1 ∆Tm(°C): Supplementary Fig. 3d/3e, replicate values
T4 construct: Human IRE1α kinase and RNase domain (residues 547–977) was subcloned into pLIB plasmid; His tag (with TEV cleavage site) (N, cleaved yes); made in house; host or cells: Sf9 insect cells, baculovirus (Bac-to-Bac)
Experimental: as §1

T2 sequence (O75460 547-977): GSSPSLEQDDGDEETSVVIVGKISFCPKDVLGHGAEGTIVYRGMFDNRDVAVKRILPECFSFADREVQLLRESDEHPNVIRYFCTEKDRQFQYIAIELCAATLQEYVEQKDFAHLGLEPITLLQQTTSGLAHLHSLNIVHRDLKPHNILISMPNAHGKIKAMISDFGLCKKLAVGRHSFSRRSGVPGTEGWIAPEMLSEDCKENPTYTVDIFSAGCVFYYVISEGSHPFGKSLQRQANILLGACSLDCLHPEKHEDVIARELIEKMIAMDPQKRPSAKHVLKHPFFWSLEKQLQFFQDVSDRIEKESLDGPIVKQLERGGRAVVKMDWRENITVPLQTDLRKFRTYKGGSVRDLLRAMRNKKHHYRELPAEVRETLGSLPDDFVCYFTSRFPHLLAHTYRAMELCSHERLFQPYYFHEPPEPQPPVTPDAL
T3 sequence (O75460 547-977): as above
T4 sequence (O75460 547-977): as above
T1 sequence (O75460 547-977): as above

Kd (dephosphorylated IRE1α): 2.99 µM
p-IRE1a ∆Tm(°C) (p-IRE1α; compound 3.125 μM): 0.29 °C (2×) and 0.42 °C and 0.19 °C
IC50 ([1]; RNase activity, mean (± SEM), read-out: p-IRE1α IC50): 0.133 µM and 0.13 µM
IC50 ([1]; source data, unit from Fig. 3, read-out: p-IRE1a IC50, individual replicates (n1-n4)): 0.154 µM and 0.127 µM and 0.116 µM
stabilization of IRE1α in DSF (IRE1α): concentration-dependently stabilized
SMILES: Cc1ccc2c(c1)c(CCC(=O)O)c(C)n2C(=O)c1ccccc1 [IA147]
p-IRE1a ∆Tm(°C) (p-IRE1α; compound 1.563 μM): 0.22 °C and 0.13 °C and 0.08 °C and 0.11 °C
p-IRE1a ∆Tm(°C) (p-IRE1α; compound 6.25 μM): 0.58 °C and 0.78 °C and 0.38 °C and 0.50 °C
p-IRE1a ∆Tm(°C) (p-IRE1α; compound 12.5 μM): 0.95 °C and 0.90 °C and 0.84 °C and 1.22 °C
p-IRE1a ∆Tm(°C) (p-IRE1α; compound 25 μM): 1.52 °C and 1.79 °C and 1.41 °C and 1.95 °C
p-IRE1a ∆Tm(°C) (p-IRE1α; compound 50 μM): 2.33 °C and 2.18 °C and 1.98 °C and 2.60 °C
p-IRE1a ∆Tm(°C) (p-IRE1α; compound 100 μM): 3.18 °C and 2.83 °C and 2.92 °C and 3.09 °C
IRE1 ∆Tm(°C) (IRE1α; compound 1.563 μM): 0.4825 °C (2×) and 0.3925 °C and 0.4425 °C
IRE1 ∆Tm(°C) (IRE1α; compound 3.125 μM): 0.6325 °C and 0.6525 °C and 0.6425 °C and 0.5925 °C
IRE1 ∆Tm(°C) (IRE1α; compound 6.25 μM): 1.0225 °C and 1.5025 °C and 1.2125 °C and 1.1425 °C
IRE1 ∆Tm(°C) (IRE1α; compound 12.5 μM): 1.7325 °C and 2.0725 °C and 1.7925 °C (2×)
IRE1 ∆Tm(°C) (IRE1α; compound 25 μM): 2.7025 °C (2×) and 2.5925 °C and 2.5225 °C
IRE1 ∆Tm(°C) (IRE1α; compound 50 μM): 3.6525 °C and 3.6025 °C and 3.6325 °C and 3.5325 °C
IRE1 ∆Tm(°C) (IRE1α; compound 100 μM): 4.5725 °C and 4.5025 °C and 4.4925 °C and 4.4625 °C
